Assay results published in patent publication US5246956A, “N-imidazolyl derivatives of substituted alkoxyimino tetrahydronaphthalenes and chromans having antithromboxane A2 activity” (Farmitalia Carlo Erba S.r.l., priority 1991, dated 1993).
Like-named read-outs stand apart in the source and are kept apart here. Blank lines part the entries; values can stand above or below the compound they belong to.

Experiments:
TxB2 synthesis = TxB2 synthesis inhibition in vitro, in whole blood of normal rats; type: cell-based, rat (Sprague Dawley)
Procedure: (§1) The effects of a representative group of compounds of the invention were evaluated, in comparison with known compounds, on TxB2 synthesis inhibition in vitro, in whole blood of normal rates, and on TxA2 antagonism in a binding assay in washed human platelets.
TxB2 synthesis inhibition
Blood was withdrawn from the abdominal aorta of normal Sprague Dawley rats (Charles River Italy) under light ether anaesthesia. The blood was immediately divided in portions of 0.5 ml and distributed in glass tubes each containing a concentration of the test compound, or of the reference compounds.
Samples were then allowed to clot for 1 hour at 37° C., centrifuged at 3000 rpm for 10 min, and serum collected and stored at -20° C. until assayed.

[1] = target: T1, TXA2 receptor (washed human platelets) (Homo sapiens, UniProt P21731); assay: Displacement of [^3 H]-SQ 29,548 binding to washed human platelets (TxA2 antagonism)
T1 construct: endogenous in cells; host or cells: washed human platelets from healthy volunteers
T1 sequence (P21731 1-343): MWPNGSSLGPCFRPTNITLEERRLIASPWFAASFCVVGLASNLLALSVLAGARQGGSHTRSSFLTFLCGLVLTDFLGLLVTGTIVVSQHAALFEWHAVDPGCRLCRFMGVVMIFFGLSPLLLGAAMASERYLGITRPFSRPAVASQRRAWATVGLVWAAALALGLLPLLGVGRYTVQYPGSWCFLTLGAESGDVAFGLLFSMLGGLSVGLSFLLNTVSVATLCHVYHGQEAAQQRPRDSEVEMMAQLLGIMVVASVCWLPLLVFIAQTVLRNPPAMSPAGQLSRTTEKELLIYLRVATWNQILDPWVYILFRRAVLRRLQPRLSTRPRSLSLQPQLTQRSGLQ
Procedure: as §1
Displacement of [^3 H]--SO 29,548 binding to washed human platelets.
Blood from healthy volunteers of both sexes who had not taken any medication for at least 10 days was collected into one-tenth volume of acid citrate dextrose containing indomethacin (28 μM). Platelet rich plasma (PRP), obtained by centrifugation of the blood at 200 xg for 20 min. was washed twic (1000 xg for 10 min). The platelets are then resuspended in Tyrode-Hepes buffer (pH 7.4) to a final concentration of […] and incubated for 0-60 min at 25° with [^3 H]--SQ 29,548 (5 nM). For displacement experiments various concentrations (10^-9 -10^-4 M) of competing ligands were added and incubated for 30 min at 25° C. […] After the incubation, 4 ml of ice-cold TRIS-HC1 buffer (10 mM, pH 7.4) was added to each tube and the reaction mixture was immediately filtered by suction through a Whatman GF/C glass filter disc which was washed 2 times with ice-cold TRIS-CH1 (4 ml) and counted for radioactivity by a Packard β-counter.
The binding data were analysed by computerized non-linear curve fitting using the Ligand program and expressed as ID50.

[2] = Table 3, rat whole blood, read-out: TxB2 synthesis IC50
[3] = Rattus norvegicus, Table 2, whole blood of normal rats, 1 hour at 37° C., read-out: In vitro effect on TxB2 synthesis in normal rats, IC50 (whole blood)

IC50 ([1]; Table 3, washed human platelets, read-out: ^3 H-SQ 29548 binding displacement IC50): 100 nM
SMILES: COc1ccc2c(c1)/C(=N/OCCCCC(=O)O)C(n1ccnc1)C(c1ccc(OC)c(OC)c1)O2 (racemic) [FCE 26603, (+-)-(Z)-5-[[2-(3,4-dimethoxyphenyl)-3-(1H-imidazol-1-yl)-2,3-dihydro-6-methoxy-4H-1-benzopyranylidene]aminoxy]pentanoic acid]
IC50 (TxB2 synthesis; [2]): 200 nM

IC50 ([1]; Table 1, washed human platelets, 30 min at 25° C., read-out: ^3 H SQ 29548 binding displacement (washed human platelet) IC50): 33 nM
TxA2 antagonism ([1]; platelets, in words): patent TxA2 antagonist
SMILES: O=C(O)CCCCCO/N=C1/c2ccccc2OC(c2ccccc2)C1n1ccnc1 (racemic) [FCE 27016, (+-)-(Z)-6-[[2-phenyl-3-(1H-imidazol-1-yl)-2,3-dihydro-4H-benzopyranylidene]aminoxy]hexanoic acid]
affinity for the receptor compared with BM 13505 and BM 13177 ([1]; washed human platelets, in words): greater than those of compounds BM 13505 and BM 13177

SMILES: CC(=O)Oc1ccccc1C(=O)O [ASA, acetylsalicilic acid]
IC50 (TxB2 synthesis; Rattus norvegicus, 1 h, read-out: In vitro effect on TxB2 synthesis in normal rats, IC50 (whole blood)): 31000 nM

SMILES: O=C(O)COc1ccc(CCNS(=O)(=O)c2ccccc2)cc1 [BM 13177]
TxB2 synthesis IC50 (TxB2 synthesis; Table 3, rat whole blood): inactive

SMILES: O=C(O)Cc1ccc(CCNS(=O)(=O)c2ccc(Cl)cc2)cc1 [BM 13505]
TxB2 synthesis IC50 (TxB2 synthesis; Table 3, rat whole blood): inactive

^3 H-SQ 29548 binding displacement IC50 ([1]; Table 3, washed human platelets): inactive
SMILES: O=C(O)c1ccc(OCCn2ccnc2)cc1 [Dazoxiben]
IC50 (TxB2 synthesis; [3]): 1200 nM
IC50 (TxB2 synthesis; [2]): 1200 nM

SMILES: CC1Oc2ccccc2/C(=N/OCCCCC(=O)O)C1n1ccnc1 (stereo not shown) [FCE 26365, 5-[[2-methyl-3-(1H-imidazol-1-yl)-2,3-dihydro-4H-1-benzopyranylidene]aminoxy]pentanoic acid]
IC50 (TxB2 synthesis; [3]): 27 nM
inhibition of platelet TxA2 synthase (TxB2 synthesis; in words): potent inhibitor of platelet TxA2 synthase
